Columns and labels:
[1] = tested on: differentiated L6-myotubes; experiment: cAMP production relative to isoprenaline (Biological example 2 of WO 2019/053427); type: cell-based; conditions: 0.25 h, compound at 10 μM, activity relative to isoproterenol at 10 μM
How it was run: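 Differentiated L6 myotubes stimulated 15 min with test compound or isoprenaline, each at final 1×10^−5 M, in HBSS with 1% BSA, 5 mM HEPES, 1 mM IBMX, pH 7.4. cAMP production by the compound expressed relative to that induced by the same concentration of isoprenaline.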

[2] = tested on: differentiated L6-myotubes; experiment: Glucose uptake screen (Biological example 1 of WO 2019/053427); type: cell-based; conditions: compound at 10 μM, activity relative to isoproterenol at 10 μM, read-out: Biological example 1 of WO 2019/053427 (GU)
How it was run: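 Rat L6 myoblasts were differentiated into myotubes over 7 days in 2% FBS, then serum-starved overnight. Cells were stimulated with 1×10^−5 M compound plus β2 antagonist ICI-118551 for 1 h 40 min and re-dosed for 20 min in glucose-free medium. Uptake of 50 nM ^3H-2-deoxyglucose over 10 min was counted after NaOH lysis.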

Row | Compound | Emax at 10 µM [1] [%] | Emax at 10 µM [2] [%]
1 | CC(C)(C[C@H]1CC[C@H](NC(=O)C(F)(F)F)CC1)NC[C@H](O)c1cccc(F)c1 [Compound 433, N-[(1R,4r)-4-{2-[(R)-2-(m-fluorophenyl)-2-hydroxyethylamino]-2-methylpropyl}cyclohexyl]trifluoroacetamide] | 25 to 50 | > 75
2 | CN([C@H]1CC[C@H](CC(C)(C)NC[C@H](O)c2cccc(F)c2)CC1)S(C)(=O)=O [Compound 499, (R)-2-{1,1-dimethyl-2-[(1r,4R)-4-(N-mesyl-N-methylamino)cyclohexyl]ethylamino}-1-(m-fluorophenyl)-1-ethanol] | < 25 | 25 to 50
3 | CCCCNCC(O)c1cc(Cl)c(O)c(Cl)c1 (stereo not shown) [Compound 23, 2-(butylamino)-1-(3,5-dichloro-4-hydroxyphenyl)-1-ethanol] | < 25 | < 25
4 | CC(=O)N[C@H]1CC[C@H](CCC(C)(C)NC[C@H](O)c2cncc(F)c2)CC1 [Compound 361, N-[(1R,4r)-4-{3-[(R)-2-(5-fluoro-3-pyridyl)-2-hydroxyethylamino]-3-methlbutyl}cyclohexyl]acetamide] | < 25 | > 75
5 | CO[C@H]1CCC[C@@H](C(C)(C)NC[C@H](O)c2cncc(F)c2)C1 [Compound 270, (R)-2-{1-[(1R,3S)-3-methoxycyclohexyl]-1-methylethylamino}-1-(5-fluoro-3-pyridyl)-1-ethanol] | 50 to 75 | > 75
6 | CC12CCC([C@H](O)c3cccc(Cl)c3)(CC1)N2 [Compound 197, (R)-(m-chlorophenyl)(4-methyl-7-azabicyclo[2.2.1]hept-1-yl)methanol] | < 25 | > 75
7 | CCCCNC[C@H](O)c1cnc(NC(=O)C(C)C)s1 [Compound 74, N-{5-[(2S)-2-(butylamino)-1-hydroxyethyl]-1,3-thiazol-2-yl}2-methylpropionamide] | < 25 | 25 to 50
8 | CC(C)(CC[C@H]1CC[C@@H](C(=O)O)CC1)NC[C@H](O)c1cccc(F)c1 [Compound 352, (1S,4s)-4-{3-[(R)-2-(m-fluorophenyl)-2-hydroxyethylamino]-3-methylbutyl}cyclohexanecarboxylc acid] | < 25 | 25 to 50
9 | CC(C)(C[C@H]1CC[C@@H](NS(C)(=O)=O)CC1)NC[C@@H](O)c1cccc(C#N)n1 [Compound 424, 6-[(R)-2-{1,1-dimethyl-2-[(1s,4S)-4-(mesylamino)cyclohexyl]ethylamino}-1-hydroxyethyl]-2-pyridinecarbonitrile] | < 25 | 25 to 50
10 | COc1ccc(C[C@@H]2CC[C@H]([C@@H](O)c3cccc(F)c3)N2)cc1 [Compound 372, (S)-{(2R,5S)-5-[(p-methoxyphenyl)methyl]-2-pyrrolidinyl}(m-fluorophenyl)methanol] | < 25 | > 75
11 | O[C@H](c1cccc(F)c1)C12CCC(Cc3ccc(F)cc3)(CC1)N2 [Compound 413, (R)-(m-florophenyl){4-[(p-fluorophenyl)methyl]-7-azabicyclo[2.2.1]hept-1-yl}methanol] | < 25 | > 75
12 | COC(=O)[C@H]1CC[C@@H](C(C)(C)NC[C@H](O)c2cccc(F)c2)CC1 [Compound 328, (1S,4s)-8-[(R)-2-(m-fluorophenyl)-2-hydroxyethylamino]-7-methoxy-p-menthan-7-one] | < 25 | > 75
13 | CC(=O)N[C@H]1CC[C@H](CC(C)(C)NC[C@H](O)c2cccc(C#N)n2)CC1 [Compound 425, N-[(1S,4r)-4-{2-[(S)-2-(6-cyano-2-pyridyl)-2-hydroxyethylamino]-2-methylpropyl}cyclohexyl]acetamide] | 25 to 50 | > 75
14 | OC(CNCC1CCCCC1)c1ccccc1 (stereo not shown) [Compound 7, 2-[(cyclohexylmethyl)ami-no]-1-phenyl-1-ethanol] | < 25 | 25 to 50
15 | CC(=O)N[C@H]1CC[C@H](C(C)(C)NC[C@H](O)c2cncc(F)c2)CC1 [Compound 346, N-[(1R,4r)-4-{1-[(R)-2-(5-fluoro-3-pyridyl)-2-hydroxyethylamino]-1-methylethyl}cyclohexyl]acetamide] | < 25 | > 75
16 | CC(=O)N[C@H]1CC[C@H](C(C)(C)NC[C@H](O)c2cccc(F)c2)CC1 [Compound 386, N-[(1R,4r)-4-{1-[(R)-2-(m-fluorophenyl)-2-hydroxyethylamino]-1-methylethyl}cyclohexyl]acetamide] | < 25 | > 75
17 | CC12CC(C1)[C@@H]([C@H](O)c1cccc(F)c1)N2 [Compound 188, (R)-{(S)-1-methyl-2-azabicyclo[2.1.1]hex-3-yl}(m-fluorophenyl)methanol] | < 25 | < 25
18 | CC12CC(C1)[C@@H]([C@@H](O)c1cccc(Cl)c1)N2 [Compound 207, (S)-{(S)-1-methyl-2-azabicyclo[2.1.1]hex-3-yl}(m-chlorophenyl)methanol] | < 25 | 25 to 50

Row | Compound | Emax at 10 µM [1] [%] | Emax at 10 µM [2] [%]
19 | CCOC(=O)CO[C@H]1CC[C@@H](C(C)(C)NC[C@H](O)c2cccc(F)c2)CC1 [Compound 407, ethyl [(1S,4s)-4-{1-[(R)-2-(m-fluorophenyl)-2-hydroxyethylamino]-1-methylethyl}cyclohexyloxy]acetate] | < 25 | 50 to 75
20 | O[C@@H](c1cccc(F)c1)C12CCC(CCc3ccc(Cl)cc3)(CC1)N2 [Compound 527, (S)-{4-[2-(p-chlorophenyl)ethyl]-7-azabicyclo[2.2.1]hept-1-yl}(m-fluorophenyl)methanol] | < 25 | < 25
21 | O[C@@H](c1cccc(F)c1)C12CCC(COCc3ccc(OC(F)(F)F)cc3)(CC1)N2 [Compound 487, (S)-(m-fluorophenyl)(4-{[(p-trifluoromethoxyphenyl)methoxy]methyl}-7-azabicylco[2.2.1]hept-1-yl)methanol] | < 25 | < 25
22 | CC(C)(C[C@H]1CC[C@H](O)CC1)NC[C@H](O)c1cncc(F)c1 [Compound 299, (R)-2-{1,1-dimethyl-2-[(1r,4R)-4-hydroxycyclohexyl]ethylamino}-1-(5-fluoro-3-pyridyl)-1-ethanol] | < 25 | 50 to 75
23 | CCCCNCC(O)c1ccc(F)c(N)c1 (stereo not shown) [Compound 44, 1-(3-amino-4-fluorophenyl)-2-(butylamino)-1-ethanol] | < 25 | 50 to 75
24 | CCCCNCC(O)c1cccc(Cl)c1 (stereo not shown) [Compound 2, 2-(butylamino)-1-(m-chlorophenyl)-1-ethanol] | < 25 | 25 to 50
25 | COC(=O)[C@H]1CC[C@@H](CC(C)(C)NC[C@H](O)c2cncc(F)c2)CC1 [Compound 322, methyl (1S,4s)-4-{2-[(R)-2-(5-fluoro-3-pyridyl)-2-hydroxyethylamino]-2-methylpropyl}cyclohexanecarboxylate] | < 25 | > 75
26 | CCCCNC[C@H](O)c1cnc(N)nc1 [Compound 89, (R)-1-(2-amino-5-pyrimidinyl)-2-(butylamino)-1-ethanol] | < 25 | 50 to 75
27 | O[C@@H](CNCC[C@H]1CC[C@H](OCc2ccccc2)CC1)c1cccc(F)c1 [Compound 288, (R)-1-(m-fluorophenyl)-2-{2-[(1r,4R)-4-(benzyloxy)cyclohexyl]eth-ylamino}-1-ethanol] | < 25 | 25 to 50
28 | O=C(N[C@H]1CC[C@H](CNC[C@H](O)c2cncc(F)c2)CC1)c1ccccc1 [Compound 317, N-[(1R,4r)-4-{[(R)-2-(5-fluoro-3-pyridyl)-2-hydroxyethylamino]methyl}cyclohexyl]benzamide] | < 25 | 50 to 75
29 | CO[C@H]1CC[C@H](CC(C)(C)NC[C@H](O)c2cncc(F)c2)CC1 [Compound 250, (R)-2-{1,1-dimethyl-2-[(1r,4R)-4-methoxycyclohexyl]ethyl-amino}-1-(5-fluoro-3-pyridyl)-1-ethanol] | < 25 | 50 to 75
30 | CC(C)(NC[C@H](O)c1cccc(F)c1)[C@H]1CC[C@@H](C(=O)O)CC1 [Compound 369, (1S,4s)-8-[(R)-2-(m-fluorophenyl)-2-hydroxyethylamino]-7-hydroxy-p-menthan-7-one] | < 25 | 50 to 75
31 | CCC[C@H]1CCC[C@@H]([C@@H](O)c2cccc(O)c2)N1 [Compound 121, (S)-[(2S,6S)-6-propyl-2-piperidyl](m-hydroxyphenyl)methanol] | < 25 | > 75
32 | CC(C)(C)NC[C@H](O)c1cncc(Cl)c1 [Compound 138, (R)-2-(tert-butylamino)-1-(5-chloro-3-pyridyl)-1-ethanol] | > 75 | > 75
33 | CC12CCC([C@@H](O)c3ccncc3F)(CC1)N2 [Compound 253, (S)-(3-fluoro-4-pyridyl)(4-methyl-7-azabicyclo[2.2.1]hept-1-yl)methanol] | < 25 | < 25
34 | CCCCNC[C@H](O)c1ccnc(N)n1 [Compound 73, (S)-1-(2-amino-4-pyrimidinyl)-2-(butylamino)-1-ethanol] | < 25 | 25 to 50
35 | CC12CC(C1)[C@H]([C@@H](O)c1cccc(F)c1)N2 [Compound 187, (S)-{(R)-1-methyl-2-azabicyclo[2.1.1]hex-3-yl}(m-fluorophenyl)methanol] | < 25 | 25 to 50
